Experimental data published in ChEMBL document CHEMBL1201862, “PubChem BioAssay data set” (2004).
Calls of active or inactive are those of the source.

How the values were obtained:
Beta-galactosidase = Beta-galactosidase (Escherichia coli, UniProt Q8VNN2); experiment: Dose response counterscreen for EBI2 assay utilizing the enzyme, b-galactosidase.; assay type: functional
[1] = molecular target: T1, Adenosylmethionine-8-amino-7-oxononanoate aminotransferase (Mycobacterium tuberculosis, UniProt P9WQ81); experiment: Mycobacterium tuberculosis BioA enzyme inhibitor Measured in Biochemical System Using Plate Reader - 2163-02_Inhibitor_Dose_CherryPick_Activity.; assay type: functional, Mycobacterium tuberculosis UT205
T1 sequence (P9WQ81 whole entry): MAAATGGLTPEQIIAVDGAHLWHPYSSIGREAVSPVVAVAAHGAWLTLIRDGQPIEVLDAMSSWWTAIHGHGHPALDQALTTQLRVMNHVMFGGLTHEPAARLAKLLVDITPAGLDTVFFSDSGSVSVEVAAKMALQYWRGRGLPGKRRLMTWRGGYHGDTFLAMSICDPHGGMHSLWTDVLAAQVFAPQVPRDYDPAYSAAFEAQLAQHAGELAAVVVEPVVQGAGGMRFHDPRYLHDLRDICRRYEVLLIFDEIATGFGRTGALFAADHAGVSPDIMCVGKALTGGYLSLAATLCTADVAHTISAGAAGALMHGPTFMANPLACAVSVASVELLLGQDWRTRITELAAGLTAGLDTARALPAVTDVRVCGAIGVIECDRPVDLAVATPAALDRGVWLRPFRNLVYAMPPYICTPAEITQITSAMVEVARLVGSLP

[2] = LGR2 antagonists, dose response, cell-based, HEK293, CRE-luciferase reporter, cherry pick, set 2 (AID 743343); assay type: functional;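 further: transfected cells were stimulated with diluted bursicon conditioned medium after compound addition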
[3] = MC4R antagonists, dose response, counter-screen for LGR2 antagonist project, cell-based, plate reader, cherry pick (AID 743444); assay type: functional;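 further: transfected HEK 293 cells stimulated with alpha-MSH peptide; potency of inhibitors of the alpha-MSH evoked signal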
[4] = A549 cell cytotoxicity, dose response, cytotoxicity control, plate reader, cherry-pick, antagonist series (AID 743412); assay type: functional, cell-based
[5] = IGROV1 ovarian cancer cell cytotoxicity, dose response, PAX8 inhibitor project, plate reader, dry powder samples (AID 743043); assay type: functional, cell-based; details: IGROV-1
[6] = cytotoxicity in OVCAR8 ovarian cancer cells, dose response, PAX8 project, cell-based, plate reader, dry powder samples (AID 743197); assay type: functional; details: OVCAR-8
[7] = A2780 ovarian cancer cell cytotoxicity, dose response, cytotoxicity control, plate reader, dry powder samples (AID 743046); assay type: functional, cell-based
Paired box protein Pax-8 = Paired box protein Pax-8 (Homo sapiens, UniProt Q06710); experiment: inhibitors of PAX8-driven TPO luciferase reporter, dose response, RMG-I cells, cherry-pick (AID 687027); assay type: functional, cell-based;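 further: luciferase reporter driven by Pax8 target thyroperoxidase promoter measured by SteadyGlo luminescence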
Chain of Paired box protein Pax-8 (Q06710 whole entry): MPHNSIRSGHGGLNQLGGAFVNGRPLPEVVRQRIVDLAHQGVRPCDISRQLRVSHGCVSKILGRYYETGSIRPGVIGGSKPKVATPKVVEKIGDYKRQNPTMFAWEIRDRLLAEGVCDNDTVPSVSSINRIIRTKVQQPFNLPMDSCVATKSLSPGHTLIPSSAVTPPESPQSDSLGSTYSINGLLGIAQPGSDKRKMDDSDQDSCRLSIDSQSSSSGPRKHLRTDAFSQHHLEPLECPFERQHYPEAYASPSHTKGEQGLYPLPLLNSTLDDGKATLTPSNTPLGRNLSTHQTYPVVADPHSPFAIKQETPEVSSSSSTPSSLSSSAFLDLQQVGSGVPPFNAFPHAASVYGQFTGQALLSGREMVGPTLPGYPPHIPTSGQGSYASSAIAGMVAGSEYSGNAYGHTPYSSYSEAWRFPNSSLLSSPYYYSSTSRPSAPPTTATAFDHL

[8] = NIH:OVCAR-3 ovarian cancer cell cytotoxicity, dose response, PAX8 inhibitor project, plate reader, dry powder samples (AID 743044); assay type: functional, cell-based
[9] = molecular target: T2, Heat shock factor protein 1 (Mus musculus, UniProt P38532); experiment: HSF1 potentiators in luciferase reporter cells, confirmation, cell-based, NIH3T3, luminescence, dose retest (AID 435004); assay type: functional;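 further: stress induced by proteasome inhibitor MG132 added 30 min after compound; luciferase reporter driven by HSF1 response element in NIH3T3 cells; actives raise luminescence as potentiators of the MG132 stress response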
T2 sequence (P38532 whole entry): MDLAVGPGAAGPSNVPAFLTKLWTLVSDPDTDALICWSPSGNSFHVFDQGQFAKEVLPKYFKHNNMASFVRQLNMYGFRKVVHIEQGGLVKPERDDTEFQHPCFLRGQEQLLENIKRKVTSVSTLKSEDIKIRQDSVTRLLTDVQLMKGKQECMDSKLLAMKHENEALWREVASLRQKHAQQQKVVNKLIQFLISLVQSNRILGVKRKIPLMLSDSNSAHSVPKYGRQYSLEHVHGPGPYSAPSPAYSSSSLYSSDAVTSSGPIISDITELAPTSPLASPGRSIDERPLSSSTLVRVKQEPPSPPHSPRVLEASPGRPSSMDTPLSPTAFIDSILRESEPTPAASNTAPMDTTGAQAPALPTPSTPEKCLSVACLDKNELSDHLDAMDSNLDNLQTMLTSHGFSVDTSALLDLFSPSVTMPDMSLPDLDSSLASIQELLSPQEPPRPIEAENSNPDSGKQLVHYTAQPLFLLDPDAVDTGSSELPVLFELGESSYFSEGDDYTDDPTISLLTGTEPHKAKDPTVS

Protein RecA = molecular target: T3, Protein RecA (Mycobacterium tuberculosis, UniProt P9WHJ3); experiment: Fluorescence Cell-Free Homogeneous Dose Retest to Identify Inhibitors of RecA-Intein Splicing Activity. [Related pubchem assays (depositor defined):AID2097, AID2223, AID489010, AID492950]; assay type: functional
T3 sequence (P9WHJ3 whole entry): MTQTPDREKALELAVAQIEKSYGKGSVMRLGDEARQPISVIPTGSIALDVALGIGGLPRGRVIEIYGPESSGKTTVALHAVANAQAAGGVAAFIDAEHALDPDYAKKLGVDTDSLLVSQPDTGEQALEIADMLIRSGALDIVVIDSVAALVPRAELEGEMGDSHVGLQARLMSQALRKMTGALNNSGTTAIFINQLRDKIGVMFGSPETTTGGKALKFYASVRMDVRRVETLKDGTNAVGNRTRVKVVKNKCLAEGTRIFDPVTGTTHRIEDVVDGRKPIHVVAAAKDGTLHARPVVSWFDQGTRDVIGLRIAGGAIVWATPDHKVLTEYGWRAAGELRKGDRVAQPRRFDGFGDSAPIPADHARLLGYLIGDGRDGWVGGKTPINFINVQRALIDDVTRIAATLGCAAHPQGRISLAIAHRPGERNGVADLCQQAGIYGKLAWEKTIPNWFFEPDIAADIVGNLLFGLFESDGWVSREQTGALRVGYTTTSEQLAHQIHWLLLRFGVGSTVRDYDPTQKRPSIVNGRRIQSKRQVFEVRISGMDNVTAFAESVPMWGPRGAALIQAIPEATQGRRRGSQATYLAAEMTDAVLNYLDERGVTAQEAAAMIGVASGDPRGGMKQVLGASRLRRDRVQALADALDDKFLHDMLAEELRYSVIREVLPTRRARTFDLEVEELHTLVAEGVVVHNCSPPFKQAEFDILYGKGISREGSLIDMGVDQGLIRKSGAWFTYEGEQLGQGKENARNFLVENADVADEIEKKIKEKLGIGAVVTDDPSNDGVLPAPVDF

[10] = molecular target: T4, Mannose-6-phosphate isomerase (Homo sapiens, UniProt P34949); experiment: human PMI inhibitors, high substrate, primary screen, biochemical, fluorescence intensity, high mannose 6-phosphate (AID 1220)
T4 sequence (P34949 whole entry): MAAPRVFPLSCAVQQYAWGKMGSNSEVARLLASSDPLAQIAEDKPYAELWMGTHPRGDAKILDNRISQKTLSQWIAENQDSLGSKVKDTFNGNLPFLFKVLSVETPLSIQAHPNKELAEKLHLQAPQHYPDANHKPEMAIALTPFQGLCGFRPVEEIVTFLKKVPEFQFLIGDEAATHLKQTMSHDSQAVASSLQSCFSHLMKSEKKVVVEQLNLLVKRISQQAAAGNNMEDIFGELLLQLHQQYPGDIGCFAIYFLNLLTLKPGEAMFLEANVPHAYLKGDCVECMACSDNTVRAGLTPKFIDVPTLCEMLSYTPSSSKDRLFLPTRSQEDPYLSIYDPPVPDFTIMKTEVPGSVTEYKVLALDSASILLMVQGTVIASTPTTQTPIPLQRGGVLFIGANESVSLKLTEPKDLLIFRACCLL

[11] = molecular target: Induced myeloid leukemia cell differentiation protein Mcl-1 (Homo sapiens, UniProt Q07820); assay type: functional
Chain of Induced myeloid leukemia cell differentiation protein Mcl-1 (Q07820 whole entry): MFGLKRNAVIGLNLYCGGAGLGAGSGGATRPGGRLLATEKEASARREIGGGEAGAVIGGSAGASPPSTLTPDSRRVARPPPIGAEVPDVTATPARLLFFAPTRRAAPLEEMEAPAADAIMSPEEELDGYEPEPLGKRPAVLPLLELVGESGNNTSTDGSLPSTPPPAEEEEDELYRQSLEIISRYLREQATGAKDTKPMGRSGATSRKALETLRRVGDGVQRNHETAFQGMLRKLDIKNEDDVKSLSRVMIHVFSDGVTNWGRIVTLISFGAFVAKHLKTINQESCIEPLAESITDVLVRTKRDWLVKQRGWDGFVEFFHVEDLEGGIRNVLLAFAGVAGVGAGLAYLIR

Chain of Beta-galactosidase (Q8VNN2 whole entry): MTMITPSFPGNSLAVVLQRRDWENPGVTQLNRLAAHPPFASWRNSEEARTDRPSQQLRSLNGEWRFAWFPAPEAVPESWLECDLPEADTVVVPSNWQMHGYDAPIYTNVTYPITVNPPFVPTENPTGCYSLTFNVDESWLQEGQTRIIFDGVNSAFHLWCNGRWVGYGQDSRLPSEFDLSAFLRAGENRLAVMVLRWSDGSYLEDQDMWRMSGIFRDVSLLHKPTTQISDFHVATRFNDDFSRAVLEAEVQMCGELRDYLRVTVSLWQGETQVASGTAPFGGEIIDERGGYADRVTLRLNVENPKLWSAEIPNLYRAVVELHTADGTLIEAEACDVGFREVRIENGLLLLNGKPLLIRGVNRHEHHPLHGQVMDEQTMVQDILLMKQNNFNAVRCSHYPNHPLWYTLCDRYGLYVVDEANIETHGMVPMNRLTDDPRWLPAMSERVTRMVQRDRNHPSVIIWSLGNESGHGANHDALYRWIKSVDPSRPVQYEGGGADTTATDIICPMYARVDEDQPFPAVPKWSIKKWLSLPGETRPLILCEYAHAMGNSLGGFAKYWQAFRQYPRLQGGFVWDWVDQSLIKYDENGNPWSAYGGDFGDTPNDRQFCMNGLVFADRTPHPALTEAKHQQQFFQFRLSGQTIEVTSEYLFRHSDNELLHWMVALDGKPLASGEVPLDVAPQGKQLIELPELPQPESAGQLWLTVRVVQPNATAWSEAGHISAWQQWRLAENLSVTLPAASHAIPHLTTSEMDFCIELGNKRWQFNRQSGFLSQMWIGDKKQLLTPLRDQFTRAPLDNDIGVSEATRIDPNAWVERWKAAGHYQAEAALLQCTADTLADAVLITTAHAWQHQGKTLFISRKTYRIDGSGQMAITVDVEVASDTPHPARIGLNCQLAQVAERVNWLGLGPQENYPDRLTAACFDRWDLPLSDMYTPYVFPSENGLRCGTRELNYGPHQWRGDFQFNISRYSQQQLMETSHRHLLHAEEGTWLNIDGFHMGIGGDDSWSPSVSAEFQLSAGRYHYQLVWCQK

O=[N+]([O-])c1ccc(NN=Cc2cc(Br)ccc2O)nc1
IC50 (Beta-galactosidase): 39.2 µM (active)

COc1ccc(-c2nc3ccc(Cl)cn3c2Cc2ccccc2)cc1OC
AC50 [1]: 10.6 µM (active)

CCCCc1ccc(NC(=O)c2cnccn2)cc1
AC50 [2]: 12.4 µM (active) | AC50 [3]: 9.42 µM (active) | AC50 [4]: > 52 µM (inactive)

COc1ccc(CCNC(=O)c2cnc3n(c2=O)CCS3)cc1OC
AC50 [1]: 13.7 µM (active)

C[C@@H]1CCCCO[C@@H](CN(C)S(=O)(=O)c2ccc(Cl)cc2)[C@H](C)CN([C@H](C)CO)C(=O)c2cc(NS(=O)(=O)c3ccc(Cl)cc3)ccc2O1
AC50 [5]: 21.7 µM (active) | AC50 [6]: 19.5 µM (active) | AC50 [7]: 55.8 µM (active) | AC50 (Paired box protein Pax-8): 3.27 µM (active) | AC50 [8]: 17.7 µM (active)

C[C@@H]1CN([C@H](C)CO)C(=O)c2cc(NS(=O)(=O)c3cccs3)ccc2O[C@@H](C)CCCCO[C@@H]1CN(C)Cc1ccc(Cl)c(Cl)c1
AC50 [5]: 26.5 µM (active) | AC50 [6]: 20.5 µM (active) | AC50 [7]: 27.8 µM (active) | AC50 (Paired box protein Pax-8): 4.91 µM (active) | AC50 [8]: 16.9 µM (active)

CCCCn1c(NC(=O)c2ccco2)c(S(=O)(=O)c2ccc(C)cc2)c2nc3ccccc3nc21
EC50 [9]: 152 µM (active) | EC50 (Protein RecA): > 380 µM (inactive) | IC50 [10]: > 50 µM (not active)

CSc1nc(N(C)CCO)c2sc3nc(-c4ccco4)c4c(c3c2n1)CCC4
IC50 [11]: 5.59 µM (active)

CCN(CC)c1ccc(NC(=S)Nc2ccc(F)cc2)cc1
IC50 [10]: > 50 µM (not active)

COc1cc(-c2nc3ccccc3nc2-c2ccc(O)c(OC)c2)ccc1O
AC50 [1]: 3.99 µM (active)
